# Assay results as given in patent publication US9133204B2, “5-membered heterocyclic amides and related compounds” (H. Lundbeck A/S, priority 2007, dated 2015).
# Target: T1, P2X7 receptor (Homo sapiens, UniProt Q99572)
# T1 construct: host or cells: SH-SY5Y
# T1 sequence (Q99572 1-595): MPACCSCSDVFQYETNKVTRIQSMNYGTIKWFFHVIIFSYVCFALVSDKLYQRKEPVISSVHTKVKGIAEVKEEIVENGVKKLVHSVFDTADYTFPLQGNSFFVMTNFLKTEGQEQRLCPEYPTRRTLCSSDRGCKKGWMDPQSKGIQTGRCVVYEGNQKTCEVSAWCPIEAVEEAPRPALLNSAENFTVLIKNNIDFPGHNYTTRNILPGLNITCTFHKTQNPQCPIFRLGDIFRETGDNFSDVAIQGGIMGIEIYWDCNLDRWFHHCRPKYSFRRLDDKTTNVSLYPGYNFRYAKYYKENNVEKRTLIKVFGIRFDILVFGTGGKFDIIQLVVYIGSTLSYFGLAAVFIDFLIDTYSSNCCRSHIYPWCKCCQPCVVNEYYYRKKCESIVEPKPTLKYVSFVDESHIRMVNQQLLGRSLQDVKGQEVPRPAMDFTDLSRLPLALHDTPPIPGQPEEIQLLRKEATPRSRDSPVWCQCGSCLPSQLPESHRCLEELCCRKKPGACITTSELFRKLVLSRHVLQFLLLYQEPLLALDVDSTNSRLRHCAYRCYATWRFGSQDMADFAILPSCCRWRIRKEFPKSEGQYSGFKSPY
# Assay: High throughput P2X7 calcium mobilization assay (Example 4A)
# Assay type: cell-based
# Settings: SH-SY5Y cells; 50% decrease in fluorescence response of cells exposed to 80 μM BzATP; flag after the MS data in Examples 1-2
# Protocol: A. High Throughput Assay of P2X7 Receptors
# SH-SY5Y cells, ATCC Number CRL-2266, (American Type Culture Collection, Manassas, Va.) are cultured under DMEM/High medium supplemented with 10% FBS, and 10 mM HEPES (Invitrogen Corp., Carlsbad, Calif.) in 5% CO2 and at 37° C. One day prior to the experiment, cells are plated at a density of 100,000 cells/well in a 96 well black/clear TC plate (Corning® Costar®, Sigma-Aldrich Co., St. Louis, Mo.). At the beginning of the experiment, the culture medium is removed and cells are incubated with 50 μL of 2.3 μM Fluo-4 AM dye (Invitrogen Corp.) in the assay solution (5 mM KCl, 9.6 mM NaH2PO4.H2O, 25 mM HEPES, 280 mM sucrose, 5 mM glucose, and 0.5 mM CaCl2; pH is adjusted to 7.4 with NaOH) for an hour at 37° C. After one hour dye incubation, wells are rinsed once with 50 μL assay solution, and are then incubated for an hour at room temperature with 100 μL assay solution containing the test compound. The final concentration of test compound generally ranges from 1 to 2500 nM; for positive control cells, no test compound is added. After the one hour incubation, plates are transferred to a FLIPR^TETRA instrument (Molecular Devices, Sunnyvale, Calif.) for calcium mobilization analysis.
# For determination of antagonist activity, 50 μL, of P2X7 agonist (2′(3)-O-(4-benzoyl-benzoyl)adenosine 5′-triphosephate (BzATP; Sigma-Aldrich) in the assay solution is transferred using the FLIPR into the plate, such that the final agonist concentration is 80 μM (about EC50). In negative control cells, 50 μL of assay solution without agonist is added at this stage. The peak fluorescence signal over a 2 minute period is then measured.
# First, the average maximum relative fluorescent unit (RFU) response from the negative control wells (no agonist) is subtracted from the maximum response detected for each of the other experimental wells. Second, average maximum RFU response is calculated for the positive control wells (agonist wells).
row,Compound,IC50
1,Cc1cnc(-n2cc(C(=O)NCC34CC5CC(CC(C5)C3)C4)c(C)n2)nc1C#N [1-(4-Cyano-5-methyl-pyrimidin-2-yl)-3-methyl-1H-pyrazole-4-carboxylic acid (adamantan-1-ylmethyl)-amide],≤ 2000 nM
2,"Nc1nc(-n2cc(C(=O)NCC34CC5CC(CC(C5)C3)C4)c(C(F)(F)F)n2)ncc1F [Compound 1, N-(Adamantan-1-ylmethyl)-1-(4-amino-5-fluoropyrimidin-2-yl)-3-(trifluoromethyl)-1H-pyrazole-4-carboxamide]",≤ 2000 nM
3,"Nc1nc(-n2cc(C(=O)NCC3(c4cccnc4)CCCCC3)c(C(F)(F)F)n2)ncc1F [Compound 2, 1-(4-Amino-5-fluoropyrimidin-2-yl)-N-((1-(pyridin-3-yl)cyclohexyl)methyl)-3-(trifluoromethyl)-1H-pyrazole-4-carboxamide]",≤ 2000 nM
4,"O=C(NCC12CC3CC(CC(C3)C1)C2)c1cn(-c2ncc(F)cn2)nc1C(F)F [Compound 3, 3-(Difluoromethyl)-1-(5-fluoro-pyrimidin-2-yl)-1H-pyrazole-4-carboxylic acid (adamantan-1-ylmethyl)-amide]",≤ 2000 nM
5,"Cc1cnc(-n2cc(C(=O)NCC34CC5CC(CC(C5)C3)C4)c(C)n2)nc1C(=O)N1CCOCC1 [Compound 4, N-(Adamantan-1-ylmethyl)-3-methyl-1-[5-methyl-4-(morpholin-4-ylcarbonyl)pyrimidin-2-yl]-1H-pyrazole-4-carboxamide]",≤ 2000 nM
6,"COc1nn(-c2ncccn2)cc1C(=O)NCC12CC3CC(CC(C3)C1)C2 [Compound 5, N-(Adamantan-1-ylmethyl)-3-methoxy-1-pyrimidin-2-yl-1H-pyrazole-4-carboxamide]",≤ 2000 nM
7,"Nc1nn(-c2ncccn2)cc1C(=O)NCC12CC3CC(CC(C3)C1)C2 [Compound 6, N-(Adamantan-1-ylmethyl)-3-amino-1-pyrimidin-2-yl-1H-pyrazole-4-carboxamide]",≤ 2000 nM
8,"O=C(NCC12CC3CC(CC(C3)C1)C2)c1cn(-c2ncccn2)nc1Cl [Compound 7, N-(Adamantan-1-ylmethyl)-3-chloro-1-pyrimidin-2-yl-1H-pyrazole-4-carboxamide]",≤ 2000 nM
9,"O=C(NCC12CC3CC(CC(C3)C1)C2)c1cnn(-c2ncccn2)c1Cl [Compound 8, N-(Adamantan-1-ylmethyl)-5-chloro-1-pyridimin-2-yl-1H-pyrazole-4-carboxamide]",≤ 2000 nM
10,"CC(C)CC(CNC(=O)c1cn(-c2ncccn2)nc1Cl)c1ccc(C(F)(F)F)cc1 (centres unmarked) [Compound 9, 3-Chloro-N-{4-methyl-2-[4-(trifluoromethyl)phenyl]pentyl}-1-pyrimidin-2-yl-1H-pyrazole-4-carboxamide]",≤ 2000 nM
11,"O=C(NCC1(c2ccc(C(F)(F)F)cc2)CCCCC1)c1cn(-c2ncccn2)nc1Cl [Compound 10, 3-Chloro-1-pyrimidin-2-yl-N-({1-[4-(trifluoromethyl)phenyl]cyclohexyl}methyl)-1H-pyrazole-4-carboxamide]",≤ 2000 nM
12,"O=C(NCC1(c2cccnc2)CCCCC1)c1cn(-c2ncccn2)nc1Cl [Compound 11, 3-Chloro-N-[(1-pyridin-3-ylcyclohexyl)methyl]-1-pyrimidin-2-yl-1H-pyrazole-4-carboxamide]",≤ 2000 nM
13,"Cc1ccc(C2(CNC(=O)c3cn(-c4ncccn4)nc3Cl)CCCCC2)cn1 [Compound 12, 3-Chloro-N-{[1-(6-methylpyridin-3-yl)cyclohexyl]methyl}-1-pyrimidin-2-yl-1H-pyrazole-4-carboxamide]",≤ 2000 nM
14,"O=C(NCC1(c2cccnc2)CCCCC1)c1cn(-c2nccn3ccnc23)nc1C(F)(F)F [Compound 14, 1-Imidazo[1,2-a]pyrazin-8-yl-3-trifluoromethyl-1H-pyrazole-4-carboxylic acid (1-pyridin-3-yl-cyclohexylmethyl)-amide]",≤ 2000 nM
15,"O=C(CC12CC3CC(CC(C3)C1)C2)Nc1cn(-c2ncccn2)nc1C(F)(F)F [Compound 15, 2-Adamantan-1-yl-N-(1-pyrimidin-2-yl-3-trifluoromethyl-1H-pyrazol-4-yl)-acetamide]",≤ 2000 nM
16,"Cc1nn(C)c(Cc2ccccc2)c1C(=O)NCC12CC3CC(CC(C3)C1)C2 [Compound 16, 5-Benzyl-1,3-dimethyl-1H-pyrazole-4-carboxylic acid (adamantan-1-ylmethyl)-amide]",≤ 2000 nM
17,"O=C(NCC12CC3CC(CC(C3)C1)C2)c1ccnn1Cc1ccccc1 [Compound 17, N-(Adamantan-1-ylmethyl)-1-benzyl-1H-pyrazole-5-carboxamide]",≤ 2000 nM
18,"Cn1nc(-c2ccccc2)cc1C(=O)NCC1(c2cccnc2)CCCCC1 [Compound 19, 1-Methyl-3-phenyl-N-[(1-pyridin-3-ylcyclohexyl)methyl]-1H-pyrazole-5-carboxamide]",≤ 2000 nM
19,"Cc1ccc(C2(CNC(=O)c3cc(-c4ccccc4)nn3C)CCCCC2)cn1 [Compound 20, 1-Methyl-3-phenyl-N-{[1-(methylpyridin-3-yl)cyclohexyl]methyl}-1H-pyrazole-5-carboxamide]",≤ 2000 nM
20,"Cn1nc(-c2ccccc2)cc1C(=O)NCC1(c2ccc(Cl)cc2)CCCCC1 [Compound 21, 1-Methyl-3-phenyl-N-[1-(4-chlorophenyl)cyclohexyl]methyl-1H-pyrazole-5-carboxamide]",≤ 2000 nM
21,"CC(C)CC(CNC(=O)c1sc(-c2ncccn2)nc1C(F)(F)F)c1ccc(Cl)cc1 (centres unmarked) [Compound 22, 4-trifluoromethyl-2-pyrimidin-2-yl-thiazole-5-carboxylic acid[2-(4-chloro-phenyl)-4-methyl-pentyl]-amide]",≤ 2000 nM
22,"O=C(NCC(c1ccc(Cl)cc1)N1CCCCC1)c1sc(-c2ncccn2)nc1C(F)(F)F (centres unmarked) [Compound 23, N-[2-(4-chlorophenyl)-2-piperidin-1-ylethyl]-2-pyrimidin-2-yl-4-(trifluoromethyl)-1,3-thiazole-5-carboxamide]",≤ 2000 nM
23,"CN1CCN(C2(CNC(=O)c3sc(-c4ncccn4)nc3C(F)(F)F)CCCCCC2)CC1 [Compound 24, N-{[1-(4-methylpiperazin-1-yl)cycloheptyl]methyl}-2-pyrimidin-2-yl-4-(trifluoromethyl)-1,3-thiazole-5-carboxamide]",≤ 2000 nM
24,"O=C(NCC1(c2cccnc2)CCCCC1)c1sc(N2CCCCS2(=O)=O)nc1C(F)(F)F [Compound 26, 2-(1,1-Dioxido-1,2-thiazinan-2-yl)-N-[(1-pyridin-3-ylcyclohexyl)methyl]-4-(trifluoromethyl)-1,3-thiazole-5-carboxamide]",≤ 2000 nM
25,"CN(C)[C@@H]1CCN(c2nc(C(F)(F)F)c(C(=O)NCC3(c4cccnc4)CCCCC3)s2)C1 [Compound 27, 2-((R)-3-Dimethylamino-pyrrolidin-1-yl)-4-trifluoromethyl-thiazole-5-carboxylic acid (1-pyridin-3-yl-cyclohexylmethyl)-amide]",≤ 2000 nM
26,"COc1ccc(-c2nc(C(F)(F)F)c(C(=O)NCC3(c4cccnc4)CCCCC3)s2)cn1 [Compound 28, 2-(6-methoxy-pyridin-3-yl)-4-trifluoromethyl-thiazole-5-carboxylic acid (1-pyridin-3-yl-cyclohexylmethyl)-amide]",≤ 2000 nM
27,"Cc1nc(-c2cccnc2)sc1C(=O)NCC1(c2ccc(Cl)cc2)CCCCC1 [Compound 29, N-{[1-(4-Chlorophenyl)cyclohexyl]methyl}-4-methyl-2-pyridin-3-yl-1,3-thiazole-5-carboxamide]",≤ 2000 nM
28,Cc1nc(-c2cccnc2)sc1C(=O)NCC(CC(C)C)c1ccc(C(F)(F)F)cc1 (centres unmarked) [Compound 30],≤ 2000 nM
29,"Cc1nc(-c2cccnc2)sc1C(=O)NCC(CC(C)C)c1ccc(Cl)cc1 (centres unmarked) [Compound 31, N-[2-(4-Chlorophenyl)-4-methylpentyl}-4-methyl-2-pyridin-3-yl-1,3-thiazole-5-carboxamide]",≤ 2000 nM
